Data: patent US20060084599A1, “Compositions, methods and kits relating to notch signaling” (Maine Medical Center, priority 2003, published 2006)
Each block holds one compound with its values, some of them ahead of it.

Key:
[1] = test system: in vitro translation product of the Delta1 transcript
[2] = test system: full-length human Jagged1, in vitro translation product
[3] = molecular target: full-length human Jagged1 on NIH 3T3 cell transfectants (human) (UniProt P78504); test: cell-based or functional assay
[4] = test system: NIH 3T3 cell transfectants; test: Colony formation in soft agar (anchorage-independent growth); format: cell-based, murine
Description: Clonal populations of NIH 3T3 cells stably transfected with vector control, soluble Jagged1 (sJ1), constitutively active Notch1 (caN1), constitutively active Notch 2 (caN2), dominant negative Notch 1 (dnN1), dominant negative Notch 2 (dnN2), an oncogenic mutant of FGF1 engineered with the FGF4 signal peptide sequence (hst-β (FGF4):FGF1), or constitutively active oncogenic Ras construct (caRas), were plated on 6 cm tissue culture dishes with 0.5% agar in an overlay containing DMEM (Gibco BRL) media, 10% bovine calf serum (BCS; Hyclone), and 0.33% agar at 1.5×10^3 cells/dish. As indicated, some dishes were also treated with 1 μM of the FGFR1-specific inhibitor, PD166866 (Panek et al., 1998, J. Pharmacol. Exp. Ther. 286: 569-577) and/or 10 ng/ml recombinant human FGF1 and 10 U/ml heparin (Sigma). Cells were fed with 0.5 ml of media with or without FGF1 and/or the FGFR1-specific inhibitor every 3 days as indicated. Twenty days after plating, colonies were stained with p-iodonitrotetrazolium violet (Sigma) for visualization. Quantitation of colony formation was achieved by counting all p-iodonitrotetrazolium violet-stained colonies consisting of more than 4 cells under a Zeiss Stemi SVII Apo dissecting microscope.
Anchorage-Dependent and -Independent Cell Growth Assays. Approximately 3×10^4 cells were plated on fibronectin (10 μg/cm^2)-coated in 12-well cell culture dishes (Falcon) in DMEM containing 10% BCS (v/v) (Hyclone). Three wells of the individual NIH 3T3 cell transfectants were harvested every third day and cell number was quantitated using a hemocytometer. Anchorage-independent cell growth was evaluated by plating in duplicate approximately 1.7×10^3 cells in DMEM containing 0.5% (w/v) agar (Sigma) 10% (v/v) BCS into 5 cm plastic dishes (Falcon) as previously described (Small et al., 2003, J. Biol. Chem. 278:16405-16413).

[5] = test system: NIH 3T3 stable transfectants; test: FGF1-induced spheroid formation; format: cell-based, murine
Description: Clonal populations of NIH 3T3 stable transfectants were resuspended and grown in media containing 10% BCS, 10% BCS containing 1 μM PD166866, 10% BCS containing 10 ng/ml recombinant human FGF1 and 10 U/ml heparin or 10% BCS containing 10 ng/ml recombinant human FGF 1, 10 U/ml heparin and 1 μM PD 166866 as indicated in the figure legend. Approximately 2×10^5 cells were plated per well (6-well dish) and three days after plating, phase-contrast micrographs of the cells were taken.

[6] = test system: CSL1-dependent transcription; test: Dual luciferase reporter assay of CSL1-dependent transcription (Example 2); format: cell-based, murine
Description: Insert-less vector control and sJ1 NIH 3T3 cell transfectants (approximately 3×10^4) were plated on fibronectin-coated (10 μg/cm^2) cell culture dishes and the cells were transiently transfected at approximately 50% confluency with 500 ng of a luciferase construct containing four tandem copies of the CBF1 response element (Small et al., 2001, J. Biol. Chem. 276:32022-32030).
Cotransfection with 100 ng of the TK Renilla (Promega) construct was used as an internal control for transfection efficiency using Fugene 6 (Roche), according to the manufacturer's instructions. Cells were treated with or without 10, […] hours after transfection, harvested 48 hours after the transfection and luciferase/renilla activity measured using the Dual Luciferase Reporter Assay System (Promega). Each experiment was performed in triplicate.

Jagged1 = Jagged1 expression by immunoblot; format: cell-based, murine; details: 10 ng/ml FGF1 and 10 U/ml heparin in growth media
Description: Vector control, SJ1, CaN1, J1, Hstβ(FGF4):FGF1 and sJ1:caN1 stable NIH 3T3 cell transfectants were plated on tissue culture dishes in either normal growth media (DMEM (Gibco BRL) media, 10% bovine calf serum (BCS; Hyclone)) or normal growth media containing 10 ng/ml recombinant FGF1 and 10 U/mi heparin. Cells were harvested at confluency (based on status of vector control cells grown in normal growth media).
Because hst-β(FGF4):FGF1 stable transfectants and the sJ1 transfectants grown in FGF 1-containing media form spheroids, all cells were harvested by scraping in the presence of the growth media dn then the cells/growth media was collected into sterile 15 ml conical tubes. Cells were pelleted by centrifugation at 800×g for 5′ at 4° C. After centrifugation, the supernatant was removed and the cell pellets were washed 3× with 1×PBS. Cells were lysed in 500 μl in 20 mM tris, pH 7.5 containing 300 mM sucrose, 60 mM KCl, 15 mM NaCl, 0.5 mM EDTA, 0.5% (v/v) Triton X-100 1 mM Phenymethyl sulfonyl flouride, 0.1% SDS, 2 μg/ml aprotinin, […], 10 μg/ml leupeptin, and 1 mM sodium orthovanadate for 15 minutes on ice. Cell lysates were pelleted and the supernatant containing soluble proteins removed.
Samples were normalized to protein concentration using the BCA Protein Assay Kit (Pierce). […]

[7] = test system: caN1/CSL-activated transcription; test: Transient transfection assay of CSL-regulated transcription (Example 1); format: cell-based, murine; details: exogenous FGF1 1-10 ng/ml; caN1 transfectants
Description: NIH 3T3 cells were plated onto fibronectin-coated (10 μg/cm2) 12-well tissue culture dishes and transiently transfected at approximately 80% confluency with 500 ng of a Luciferase construct activated by 4 tandem copies of the CSL (CBF1) response element (Hsieh et al. 1996, Mol. Cell. Biol. 16: 952-959), 100 ng of the TK Renilla (Promega) construct as an internal control for transfection efficiency, and 500 ng of either vector control, sJ1 or caN1 constructs using Fugene 6 (Roche) per manufacturer's instructions. For analysis of caN1 activity in the background of NIH 3T3 stable lines, vector control, caN1, sJ1 and hst-β(FGF4):FGF1 stable transfectants were plated onto fibronectin-coated (10 μg/cm2) 12-well tissue culture dishes and transiently transfected with 500 ng of the CSL-Luciferase construct, 100 ng of the TK Renilla (Promega) construct as an internal control for transfection efficiency, and 200 ng of caN1. […] The cells were harvested 48 hours after the media change and Luciferase/Renilla activity was measured using Promega's Dual-Luciferase Reporter Assay System. The efficiency of transcription was measured and normalized in relationship to the activity of pRL-TK Renilla and the activity is reported as the ratio of Luciferase/Renilla activity. […]

Notch receptor = test: cell-based or functional assay
FGFR1 (mouse) = FGFR1 (mouse) (UniProt P16092); test: cell-based or functional assay
FGFR1 (mouse), sequence (P16092 22-822): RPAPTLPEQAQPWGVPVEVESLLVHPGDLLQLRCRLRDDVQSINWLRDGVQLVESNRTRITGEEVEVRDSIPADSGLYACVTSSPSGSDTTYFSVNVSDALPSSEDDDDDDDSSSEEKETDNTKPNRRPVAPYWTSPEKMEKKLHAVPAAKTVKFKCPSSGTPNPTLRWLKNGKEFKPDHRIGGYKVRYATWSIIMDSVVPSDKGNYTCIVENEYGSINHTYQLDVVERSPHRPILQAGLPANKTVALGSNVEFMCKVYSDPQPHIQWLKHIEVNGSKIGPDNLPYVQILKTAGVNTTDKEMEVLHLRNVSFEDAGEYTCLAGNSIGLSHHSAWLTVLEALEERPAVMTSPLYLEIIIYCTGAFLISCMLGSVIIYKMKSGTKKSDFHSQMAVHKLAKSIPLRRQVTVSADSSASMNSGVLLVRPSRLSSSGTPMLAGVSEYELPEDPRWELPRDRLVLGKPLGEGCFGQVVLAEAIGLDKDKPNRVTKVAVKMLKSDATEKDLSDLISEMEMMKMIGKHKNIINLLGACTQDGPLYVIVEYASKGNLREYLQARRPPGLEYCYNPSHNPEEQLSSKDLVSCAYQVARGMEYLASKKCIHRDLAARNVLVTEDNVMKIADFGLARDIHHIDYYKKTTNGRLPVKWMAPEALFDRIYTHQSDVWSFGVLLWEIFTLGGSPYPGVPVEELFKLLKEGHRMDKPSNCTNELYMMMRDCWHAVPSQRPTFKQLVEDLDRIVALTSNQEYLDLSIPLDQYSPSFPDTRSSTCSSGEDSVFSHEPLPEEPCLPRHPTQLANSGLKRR

full-length human Jagged1 on NIH 3T3 cell transfectants (human), sequence (P78504 34-1218 A1171G limits assumed): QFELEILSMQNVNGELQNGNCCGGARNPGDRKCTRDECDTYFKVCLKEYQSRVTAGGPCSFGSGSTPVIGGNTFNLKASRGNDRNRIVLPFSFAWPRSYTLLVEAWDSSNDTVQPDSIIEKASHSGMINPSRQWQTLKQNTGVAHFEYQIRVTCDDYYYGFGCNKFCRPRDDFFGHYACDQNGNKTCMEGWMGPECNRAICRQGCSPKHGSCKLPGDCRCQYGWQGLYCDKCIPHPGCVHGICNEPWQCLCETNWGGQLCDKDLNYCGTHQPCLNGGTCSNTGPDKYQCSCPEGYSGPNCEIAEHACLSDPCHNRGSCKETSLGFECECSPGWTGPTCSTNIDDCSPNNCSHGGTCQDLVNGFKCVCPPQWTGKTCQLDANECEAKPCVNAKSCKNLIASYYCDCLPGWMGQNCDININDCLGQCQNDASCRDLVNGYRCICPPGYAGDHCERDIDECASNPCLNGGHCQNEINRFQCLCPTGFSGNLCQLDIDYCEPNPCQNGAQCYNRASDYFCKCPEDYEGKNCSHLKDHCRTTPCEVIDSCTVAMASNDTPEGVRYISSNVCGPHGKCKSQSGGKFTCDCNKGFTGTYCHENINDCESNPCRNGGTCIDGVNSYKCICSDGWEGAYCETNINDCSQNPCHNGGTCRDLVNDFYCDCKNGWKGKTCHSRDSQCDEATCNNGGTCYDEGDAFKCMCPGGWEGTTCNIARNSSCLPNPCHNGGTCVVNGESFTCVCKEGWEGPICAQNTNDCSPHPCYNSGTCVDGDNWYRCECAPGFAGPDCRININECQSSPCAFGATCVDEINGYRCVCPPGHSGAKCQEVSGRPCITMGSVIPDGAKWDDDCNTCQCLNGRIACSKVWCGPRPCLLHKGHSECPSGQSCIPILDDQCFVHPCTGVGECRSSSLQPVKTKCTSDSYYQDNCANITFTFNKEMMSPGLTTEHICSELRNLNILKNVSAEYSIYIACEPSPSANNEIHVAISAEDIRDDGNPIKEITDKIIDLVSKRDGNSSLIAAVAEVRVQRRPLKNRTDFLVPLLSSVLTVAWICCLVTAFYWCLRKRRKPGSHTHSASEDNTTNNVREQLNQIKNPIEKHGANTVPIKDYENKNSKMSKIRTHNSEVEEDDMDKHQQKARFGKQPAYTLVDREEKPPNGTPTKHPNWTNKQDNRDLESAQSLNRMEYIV

Compound: α-thrombin
- proteolytic cleavage of the in vitro translation product [1]: thrombin was unable to proteolytically modify the in vitro translation product of the Delta1 transcript
- proteolytic cleavage of in vitro translated (35S)-labelled Jagged1, SDS-PAGE and autoradiography [2]: cleavage of the full-length Jagged1 protein into 39 kDa and 95 kDa fragments

- CSL1-dependent transcription (dual luciferase reporter) in full-length Jagged1 NIH 3T3 cell transfectants (% of the control level) [3]: 75
Compound: α-thrombin (enzyme)

Compound: COc1cc(OC)cc(-c2cc3cnc(N)nc3nc2NC(=O)NC(C)(C)C)c1 [PD166866]
- effect on anchorage-independent growth of sDl1 NIH 3T3 cell transfectants [4]: completely inhibited
- effect on colony formation in caRas cells ([4]; 1 μM): had no effect on colony formation in the caRas cells
- effect on colony growth of sJ1 and dnN1 in the absence of FGF1 ([4]; 1 μM): inhibited small colony growth
- effect on FGF1-mediated colony formation ([4]; 1 μM, sJ1, dnN1 and hst-β(FGF4):FGF1 transfectants): substantially reduced FGF1-mediated colony formation
- effect on FGF1-induced spheroid formation ([5]; 1 μM PD166866, sJ1, dnN1 and hst-β(FGF4):FGF1 transfectants): completely abolished FGF1-induced spheroid formation

Compound: heparin [reference compound]
- effect of heparin on thrombin-dependent repression of CSL1-dependent transcription ([6]; heparin 5 units/ml with thrombin 10 μg/ml, full-length Jagged1 NIH 3T3 transfectants): able to potentiate the thrombin-dependent repression of CSL1-dependent transcription
- effect of heparin on CSL1-dependent transcription ([6]; heparin by itself or with 10 μM TRAP): ineffective in altering CSL1-dependent transcription

- CSL1-dependent transcription, level relative to control ([6]; thrombin on full-length Jagged1 NIH 3T3 transfectants, sJ1 expression, 10 ng/ml exogenous FGF1): approximately 25 % of the control level
Compound: FGF1: recombinant human FGF1 (acidic FGF)
- effect on Jagged1 expression (Jagged1): increased Jagged1 expression in all stable lines examined
- effect on colonies formed by sJ1 and dnN1 transfectants ([4]; 10 ng/ml FGF1 in growth media): greatly exaggerated the size of the colonies
- spheroid formation in Notch-repressed (sJ1, dnN1) NIH 3T3 cells ([5]; 10 ng/ml recombinant FGF1 and 10 U/ml heparin): formed multicellular, spheroid-like structures
- effect on caN1/CSL transcription [7]: repressed caN1/CSL transcription in a dose-dependent fashion

- CSL1-dependent transcription (dual luciferase reporter) (% of the control level) (Notch receptor): 25
Compound: soluble Jagged1 (sJ1) (from UniProt P78504 34-1067) (ligand)

- DNA synthesis ((3H)-thymidine-labelled nuclei) in Swiss 3T3 cells expressing dnFGFR1 (FGFR1 (mouse)): 70 % reduction
Compound: recombinant FGF1 (from UniProt P05230 16-155) (ligand)
